# According to patent US20110071197A1, “BIS-ARYL COMPOUNDS FOR USE AS MEDICAMENTS” (priority 2008, published 2011):
# Target: T1, Recombinant human LTC4 synthase (Homo sapiens, UniProt Q16873)
# T1 construct: made in house; host or cells: Pichia pastoris
# T1 sequence (Q16873 1-150): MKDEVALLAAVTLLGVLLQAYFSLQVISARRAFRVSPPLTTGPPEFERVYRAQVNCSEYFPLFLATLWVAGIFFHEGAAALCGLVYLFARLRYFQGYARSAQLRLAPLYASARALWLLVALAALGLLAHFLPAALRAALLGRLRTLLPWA
# Assay: LTC4 synthase in vitro assay (HTRF detection of LTC4)
# Format: biochemical
# Settings: compound concentration 3 μM; HTRF method
# Protocol: Alternatively HTRF detection of LTC4 can be used:
# In the assay, LTC4 synthase catalyses the reaction where the substrate LTA4 is converted to LTC4. Recombinant human LTC4 synthase is expressed in Piccia pastoralis and the purified enzyme is dissolved in 25 mM Tris-buffer pH 7.8 supplemented with 0.1 mM glutathione (GSH) and stored at −80° C. The assay is performed in phosphate buffered saline (PBS) pH 7.4 and 5 mM GSH in 384-well plates.
# The following is added chronologically to each well: • 1. 48 μl LTC4 synthase in PBS with 5 mM GSH. The total protein concentration in this solution is 0.5 μg/ml. • 2. […] Incubation of the plate at room temperature for 10 minutes. • 4. 1 μl LTA4 (final conc. 2.5 μM). • 5. Incubation of the plate at room temperature for 5 minutes. • 6. 10 μl of the incubation mixture is analysed using homogeneous time resolved fluorescent (HTRF) detection.
row,Compound,inhibition at 3 µM [%]
1,"CCCCOc1ccc(S(=O)(=O)NC(=O)Cc2cccc(Oc3ccc(Nc4ccc(Cl)cc4)c(C(=O)O)c3)c2)cc1 [26:1, 5-{3-[2-(4-Butoxybenzenesulfonyl-amino)-2-oxoethyl]phenoxy}-2-(4-chlorophenylamino)benzoic acid]",94

# Same assay, conditions: total concentration of title compound in the assay 10 μM; HTRF method
Compound,% inh. [%],inhibition at 10 µM [%]
"CN(C(=O)c1ccc(C(C)(C)C)cc1)c1ccc(Oc2ccc(NC(=O)c3ccc(Cl)cc3Cl)c(C(=O)O)c2)cc1 [9:3, 5-(4-((N-methyl)-4-tert-butylbenz-amido)phenoxy)-2-(2,4-dichlorobenz-amido)benzoic acid]",99,–
"Cc1nc(C(F)(F)F)ccc1C(=O)Nc1ccc(Oc2ccc(NS(=O)(=O)c3cc(Cl)cc(Cl)c3O)c(C(=O)O)c2)cc1 [21:2, 2-(3,5-Dichloro-2-hydroxy-benzene-sulfonylamino)-5-{4-[(2-methyl-6-trifluoromethyl-pyridine-3-carbonyl)-amino]-phenoxy}-benzoic acid]",–,98
"O=C(Nc1ccc(Oc2ccc(NC(=O)c3ccccc3)c(C(=O)O)c2)cc1C(=O)O)c1ccccc1 [4:2, 5-[3-carboxy-4-benzamido-phenyloxy]-2-benzamidobenzoic acid]",–,93
"O=C(Nc1ccc([S+]([O-])c2ccc(NC(=O)c3ccc(C(F)(F)F)cc3)c(C(=O)O)c2)cc1C(=O)O)c1ccc(C(F)(F)F)cc1 [15:3, 2-(4-(trifluoromethyl)benz-amido)-5-((4-(4-(trifluoromethyl)benzamido)-3-carboxy-phenyl)sulfinyl)benzoic acid]",99,–
"O=C(O)c1cc(Oc2ccc(Nc3ccc4occc4c3)c(C(=O)O)c2)ccc1Nc1ccc(F)c(F)c1 [1:4, 5-[3-carboxy-4-(3,4-difluoro-phenylamino)phenyloxy]-2-(benzofuran-5-ylamino)benzoic acid]",–,100
"O=C(Nc1ccc(Sc2ccc(NC(=O)c3ccc(Cl)cc3Cl)c(C(=O)O)c2)cc1)c1ccc(C(F)(F)F)cc1 [Example 35:1, 2-(2,4-Dichlorobenzoylamino)-5-[4-(4-trifluoromethylbenzoylamino)phenyl-sulfanyl]benzoic acid]",–,99
"N#Cc1ccc(C(=O)Nc2ccc(Oc3ccc(NC(=O)c4cccc(Cl)c4)c(C(=O)O)c3)cc2C(=O)O)cc1 [2:9, 5-[3-carboxy-4-(4-cyanobenzamido)-phenyloxy]-2-(3-chlorobenzamido)benzoic acid]",–,99
"O=C(O)c1cc(Oc2ccc(Nc3cc(C(F)(F)F)ccc3Cl)c(C(=O)O)c2)ccc1Nc1ccc(F)c(F)c1 [1:1, 5-(3-carboxy-4-(2-chloro-5-trifluoromethylphenylamino)-phenyloxy)-2-(3,4-difluoro-phenylamino)benzoic acid]",–,98
CCCCN(c1ccc(Oc2ccc(Nc3ccc(Cl)cc3)c(C(=O)O)c2)cc1)c1ccc(F)c(F)c1 [24:2],95,–
"CCCCOc1ccc(S(=O)(=O)Nc2ccc(Oc3cccc(S(=O)(=O)Nc4ccc(F)c(F)c4)c3)cc2C(=O)O)cc1 [19:2, 2-(4-Butoxy-benzenesulfonylamino)-5-[3-(3,4-difluoro-phenylsufamoyl)-phenoxy]-benzoic acid]",100,–
"O=C(Nc1cccc(Oc2ccc(NC(=O)c3ccc(C(F)(F)F)cc3F)c(C(=O)O)c2)c1)c1ccc(C(F)(F)F)cc1 [10:6, 2-(2-fluoro-4-trifluoromethylbenzoyl-amino)-5-[3-(4-trifluoromethylbenzoyl-amino)phenoxy]benzoic acid]",–,98
"CCCCOc1ccc(S(=O)(=O)Nc2ccc(Oc3cccc(NCc4cccc(F)c4F)c3)cc2C(=O)O)cc1 [23:1, 2-(4-Butoxybenzenesulfonylamino)-5-[3-(2,3-difluorobenzylamino)-phenoxy]benzoic acid]",–,100
"CCCCc1ccc(C(=O)Nc2cccc(Oc3ccc(NC(=O)c4ccc(OC(F)(F)F)cc4)c(C(=O)O)c3)c2)cc1 [10:2, 5-[(3-(4(1-butyl)benzoylamino)-phenoxy)]-2-(4-trifluoromethoxy-benzoylamino)benzoic acid]",–,88
"CCCCc1ccc(C(=O)Nc2ccc(Oc3ccc(Nc4ccc(F)cc4)cc3)cc2C(=O)O)cc1 [12:2, 5-(4-(4-fluorophenylamino)-phenoxy)-2-(4-butylbenz-amido)benzoic acid]",94,–
"O=C(O)c1cc(Oc2ccc(Nc3ccc([N+](=O)[O-])cc3)c(C(=O)O)c2)ccc1Nc1ccc(F)cc1 [1:6, 5-[3-carboxy-4-(4-nitrophenyl-amino)phenyloxy]-2-(4-fluoro-phenylamino)benzene-carboxylic acid]",–,100
"O=C(Nc1ccc(Sc2ccc(NC(=O)c3cccc(Cl)c3)c(C(=O)O)c2)cc1C(=O)O)c1cccc(Cl)c1 [13:2, 2-(3-chlorobenzamido)-5-((4-(3-chlorobenzamido)-3-carboxyphenyl)sulfanyl)benzoic acid]",–,100
"CC(C)Oc1ccc(C(=O)Nc2ccc(Oc3ccc(NC(=O)c4ccccc4)cc3)cc2CC(=O)O)cc1 [17:3, [5-(4-benzoylamino-phenoxy)-2-(4-isopropoxy-benzoyl-amino)-phenyl]-acetic acid]",–,87
"CC(C)Oc1ccc(C(=O)Nc2ccc(Oc3ccc(NC(=O)c4ccccc4)c(C(=O)O)c3)cc2)cc1 [8:13, 2-benzoylamino-5-[4-(4-iso-propoxybenzoylamino)-phenoxy]benzoic acid]",–,98
"CC(C)(C)c1ccc(C(=O)Nc2ccc(Oc3ccc(NC(=O)c4ccccn4)c(C(=O)O)c3)cc2)cc1 [8:18, 5-[4-(4-tert-Butylbenzoyl-amino)phenoxy]-2-[(pyridine-2-carbonyl)-amino]benzoic acid]",–,99
"COc1ccc(S(=O)(=O)N(C)c2ccc(Oc3ccc(NC(=O)c4ccc(Cl)cc4)c(C(=O)O)c3)cc2)cc1 [11:13, 2-(4-chlorobenzoylamino)-5-{4-[(4-methoxybenzenesulfonyl)-methylamino]phenoxy}benzoic acid]",–,99
"O=C(Nc1ccc(Oc2ccc(NC(=O)c3cc([N+](=O)[O-])ccc3Cl)c(C(=O)O)c2)cc1C(=O)O)c1cccc(Cl)c1 [2:4, 5-[3-carboxy-4-(3-nitro-6-chlorobenz-amido)-phenyloxy]-2-(3-chlorobenz-amido)benzoic acid]",99,–
"O=C(Cc1cccc(Oc2ccc(Nc3ccc(Cl)cc3)c(C(=O)O)c2)c1)NS(=O)(=O)c1ccc(F)c(F)c1 [26:2, 2-(4-Chlorophenylamino)-5-{3-[2-(3,4-difluorobenzenesulfonylamino)-2-oxoethyl]phenoxy}benzoic acid]",–,93
"COc1ccc(S(=O)(=O)N(C)c2ccc(Oc3ccc(NC(=O)c4ccccc4OC(F)(F)F)c(C(=O)O)c3)cc2)cc1 [11:19, 5-{4-[(4-Methoxy-benzenesulfonyl)-methyl-amino]-phenoxy}-2-(2-trifluoromethoxy-benzoylamino)-benzoic acid]",–,97
"CN(C)c1ccc(C(=O)Nc2ccc(Oc3ccc(NC(=O)c4ccc(C(F)(F)F)cc4)c(C(=O)O)c3)cc2)cc1.Cl [8:6, 5-[4-(4-dimethylaminobenzoyl-amino)phenoxy]-2-(4-trifluoro-methylbenzoylamino)benzoic acid hydrochloride]",97,–
"CCCCOc1ccc(S(=O)(=O)Nc2ccc(Oc3ccc(S(=O)(=O)Nc4ccc(Cl)cc4)cc3)cc2C(=O)O)cc1 [25:2, 2-(4-Butoxy-benzenesulfonyl-amino)-5-[4-(4-chlorophenylsulfamoyl)phenoxy]benzoic acid]",–,100
